In PMC8557866, “Novel Small Molecule Growth Inhibitor Affecting Bacterial Outer Membrane Reduces Extraintestinal Pathogenic Escherichia coli (ExPEC) Infection in Avian Model” (Microbiology Spectrum, 2021):
≈ marks a conversion by molar mass, not a printed value. Read-outs that look alike come from different tables or passages of the source.

How the values were obtained:
[1] = test system: APEC; experiment: microbe, parasite or virus in culture; format: cell-based, Escherichia coli
[2] = Quantification of residue in chicken tissues (LC-MS); format: in vivo, chickens
Excerpt: Chickens (n = 5/time point) from an experimental set-up as described above for the floor trial were sacrificed at 2 days (day 13; 2 DPLT), 5 days (day 16; 5 DPLT), and 31 days (day 42; 31 DPLT) post-last treatment. […] Tissue samples from chickens treated with SDM were used for comparison. […] Details of the methods are included in the supplemental material.

[3] = test system: APEC O78; settings: for Mortality reduction compared to PC group: 7 days, PC mortality 60%; for Cumulative lesion score: PC 8.8; for Survival of chickens: P < 0.05, log-rank test
Experimental: Prior to selection of these doses, we conducted a preliminary study using 20-mg/liter, 200-mg/liter, and 500-mg/liter doses (doses similar to those of antibiotics currently used in the poultry industry). […] The experiment was conducted using commercial broiler chickens (n = 11/group) as described above following procedures described in Fig. S1A. […] The amount of drinking water was adjusted daily based on the age and requirement of chickens (https://www.thepoultrysite.com/articles/broiler-water-consumption). The clinical signs and mortality, lesion scores, and APEC loads were determined as described above.

[4] = test system: LptE; experiment: LptD/E immunoblot analysis; format: cell-based, Escherichia coli; settings: vs untreated APEC
Experimental: For immunoblot analysis, total membrane proteins (25 μg) resolved by SDS-PAGE under nonreducing (in the absence of β-mercaptoethanol) conditions ([37]) as described above were electrotransferred onto an Immun-Blot polyvinylidene difluoride (PVDF) membrane (Bio-Rad) and probed for LptD or LptE using anti-LptD (1:20,000) and anti-LptE (1:30,000) polyclonal rabbit antibodies (GenScript) and goat anti-rabbit IgG horseradish peroxidase (HRP)-conjugated secondary antibody (Sigma-Aldrich). Anti-LptD and anti-LptE antibodies were generated at GenScript using keyhole limpet hemocyanin (KLH)-conjugated peptides as the antigens (LptD epitope, […], and LptE epitope, […]). The epitopes were selected using the OptimumAntigen design tool (GenScript). The transferred membrane was developed with Clarity Western ECL substrate (Bio-Rad) and visualized in a FluorChem Q imager (ProteinSimple).

[5] = Pharmacokinetic study in plasma of chickens (LC-MS); format: in vivo
Experimental: Details of the methods are included in the supplemental material. page 3: previously(3). […] The mixtures were then incubated at […] for 30 min and proteins were removed by ultracentrifugation at 13,000xg for 25 min at 2 °C.

[6] = test system: eukaryotic cells and wax moth larva; set-up: method as in PMID 30333507; settings: cited from earlier work
[7] = test system: LptE; experiment: Membrane protein SDS-PAGE and LC-MS/MS (emPAI of LptE); format: cell-based, Escherichia coli; settings: GI-7-treated APEC; untreated APEC 13.84
Experimental: A GI-7-treated culture of APEC O78 was prepared as described above, and the fractions of cytoplasmic and total membrane proteins were prepared using ultracentrifugation as described previously ([80]). […] The gel was stained with Coomassie blue R-250, the bands of ∼21.4 kDa (expected size of LptE) were excised from both untreated and GI-7-treated lanes of the gel, and in-gel digestion was performed as previously described ([81]). LC-MS/MS of the digested samples was performed on the Thermo Scientific Orbitrap Fusion MS instrument equipped with an EASY-Spray source operated in positive ion mode (CCIC, MS&P Facility, OSU). The Thermo Scientific UltiMate 3000 RSLCnano system containing an Acclaim PepMap 100 (75 μm by 2 cm) trap column and Easy-Spray nano separation column (PepMap RSLC C18, […], 100 Å, 75 μm by 150 mm; Thermo Scientific) was used for injection and elution of samples. For the proteomics database search, the E. coli Uniprot protein database with trypsin/P (selected as the enzyme) was used with the fragment mass tolerance set to 0.5 Da. Mascot Daemon (Matrix Science version 2.6.0) and Scaffold Proteome software were used for the MS/MS data analysis. […] The exponentially modified protein abundance index (emPAI) ([82]) was also calculated to compare the LptE levels between untreated and GI-7-treated gel fragments.

[8] = test system: APEC; settings: 10^9 CFU with 2× MBC or 15 passages at 0.75× MIC; cited from earlier work
[9] = 20 mg/L in drinking water, vs PC
[10] = 20 mg/liter in drinking water, vs PC
[11] = 40 mg/L in drinking water, vs PC
[12] = 40 mg/liter in drinking water, vs PC
[13] = 60 mg/L in drinking water, vs PC
[14] = 60 mg/liter in drinking water, vs PC

Compound: COc1ccc(CNCc2cccc(C(F)(F)F)c2)cc1OCC(O)CN1CCCC1 (stereo not shown) [GI-7]
- Resistance in vivo ([1]; APEC isolated from chickens treated with GI-7): no in vivo resistance
- MBC ([1]; Escherichia coli): 50 µM (≈ 21.9 µg/mL)
- MIC ([1]; Escherichia coli): 25 µM (≈ 11 µg/mL)
- Residue concentration in muscle ([2]; 2 DPLT): 0.04 ± 0.03 ppm/g tissue
- Residue level in kidney ([2]; 2 DPLT): 0.7 ± 0.6 ppm/g tissue
- Residue level in liver ([2]; 2 DPLT): 0.5 ± 0.4 ppm/g tissue
- Residue concentration in muscle ([2]; 5 DPLT): 0.01 ± 0.01 ppm/g tissue
- Residue level in kidney ([2]; 5 DPLT): 0.3 ± 0.3 ppm/g tissue
- Residue level in liver ([2]; 5 DPLT): 0.2 ± 0.2 ppm/g tissue
- Residue concentration in muscle ([2]; 31 DPLT): 0.0 ± 0.0 ppm/g tissue
- Residue level in kidney ([2]; 31 DPLT): 0.0 ± 0.0 ppm/g tissue
- Residue level in liver ([2]; 31 DPLT): 0.0 ± 0.0 ppm/g tissue
- Residues in tissues relative to FDA limits for antibiotics ([2]; in vivo): below the limits permitted by the Food and Drug Administration
- Mean APEC load, Heart ([3]; 20 mg/L in drinking water): 6.7 Log CFU/g tissues
- Mean APEC load, Kidney ([3]; 20 mg/L in drinking water): 5.9 Log CFU/g tissues
- Mean APEC load, Liver ([3]; 20 mg/L in drinking water): 6.0 Log CFU/g tissues
- Mean APEC load, Lung ([3]; 20 mg/L in drinking water): 6.3 Log CFU/g tissues
- log reduction in APEC load, Heart [3, 9]: -0.2 Log CFU/g tissues
- log reduction in APEC load, Kidney [3, 9]: 0.2 Log CFU/g tissues
- log reduction in APEC load, Liver [3, 9]: -0.1 Log CFU/g tissues
- log reduction in APEC load, Lung [3, 9]: -0.4 Log CFU/g tissues
- Mean lesion score in Air sacs ([3]; 20 mg/liter in drinking water): 2.3
- Mean lesion score in Heart ([3]; 20 mg/liter in drinking water): 2.7
- Mean lesion score in Liver ([3]; 20 mg/liter in drinking water): 2
- Mean lesion score in Lung ([3]; 20 mg/liter in drinking water): 1.8
- Mortality reduction compared to PC group ([3]; 20 mg/liter in drinking water): 10%
- Cumulative lesion score ([3]; 20 mg/liter in drinking water): 8.8
- % reduction in severity, Air sacs lesions [3, 10]: 1.4%
- % reduction in severity, Heart lesions [3, 10]: −9.5%
- % reduction in severity, Liver lesions [3, 10]: 0%
- % reduction in severity, Lung lesions [3, 10]: 10%
- Mean APEC load, Heart ([3]; 40 mg/L in drinking water): 4.4 Log CFU/g tissues
- Mean APEC load, Kidney ([3]; 40 mg/L in drinking water): 4.2 Log CFU/g tissues
- Mean APEC load, Liver ([3]; 40 mg/L in drinking water): 3.9 Log CFU/g tissues
- Mean APEC load, Lung ([3]; 40 mg/L in drinking water): 4.0 Log CFU/g tissues
- log reduction in APEC load, Heart [3, 11]: 2.0 Log CFU/g tissues
- log reduction in APEC load, Kidney [3, 11]: 1.9 Log CFU/g tissues
- log reduction in APEC load, Liver [3, 11]: 2.0 Log CFU/g tissues
- log reduction in APEC load, Lung [3, 11]: 2.0 Log CFU/g tissues
- Reduction of severity of APEC lesions in internal organs ([3]; 40 mg/liter and 60 mg/liter in drinking water, vs PC): up to 36.3%
- Mean lesion score in Heart ([3]; 40 mg/liter in drinking water): 2.6
- Mean lesion score in Liver ([3]; 40 mg/liter in drinking water): 2
- Mortality reduction compared to PC group ([3]; 40 mg/liter in drinking water): 50%
- Survival of chickens ([3]; 40 mg/liter in drinking water): prolonged the survival
- Cumulative lesion score ([3]; 40 mg/liter in drinking water): 7.7
- % reduction in severity, Heart lesions [3, 12]: −5.4%
- % reduction in severity, Liver lesions [3, 12]: 0%
- % reduction in severity, Lung lesions [3, 12]: 30%
- Mean APEC load, Heart ([3]; 60 mg/L in drinking water): 4.0 Log CFU/g tissues
- Mean APEC load, Kidney ([3]; 60 mg/L in drinking water): 3.6 Log CFU/g tissues
- Mean APEC load, Liver ([3]; 60 mg/L in drinking water): 3.5 Log CFU/g tissues
- Mean APEC load, Lung ([3]; 60 mg/L in drinking water): 4.4 Log CFU/g tissues
- log reduction in APEC load, Heart [3, 13]: 2.4 Log CFU/g tissues
- log reduction in APEC load, Kidney [3, 13]: 2.5 Log CFU/g tissues
- log reduction in APEC load, Liver [3, 13]: 2.4 Log CFU/g tissues
- log reduction in APEC load, Lung [3, 13]: 1.6 Log CFU/g tissues
- Mean lesion score in Heart ([3]; 60 mg/liter in drinking water): 2.1
- Mean lesion score in Lung ([3]; 60 mg/liter in drinking water): 1.4
- Mortality reduction compared to PC group ([3]; 60 mg/liter in drinking water): 50.9%
- Survival of chickens ([3]; 60 mg/liter in drinking water): prolonged the survival
- Cumulative lesion score ([3]; 60 mg/liter in drinking water): 6.6
- % reduction in severity, Air sacs lesions [3, 14]: 33.8%
- % reduction in severity, Heart lesions [3, 14]: 15.2%
- % reduction in severity, Liver lesions [3, 14]: 13.6%
- % reduction in severity, Lung lesions [3, 14]: 36.3%
- Anti-APEC effect compared to treatment at 60 mg/liter ([3]; 80 mg/liter, follow-up study, data not shown): did not result in a better anti-APEC effect
- LptE level (immunoblot) [4]: decreased the LptE level
- Cmax ([5]; commercial broiler, plasma, po, mean ± standard deviation, read-out: Peak plasma concentration (Cmax)): 434 ± 388 ng/mL
- Tmax ([5]; commercial broiler, plasma, po, postadministration, read-out: Time to maximum concentration (Tmax)): 8 h
- Half-life ([5]; comparison in words): shorter half-life than SDM
- Cumulative accumulation in plasma after repeated administration ([5]; data not shown): no cumulative accumulation
- Excretion ([5]; plasma): ≤ 24 h
- Absorption (time at which absorbed) ([5]; plasma, drinking water delivery): 0.5 h
- Toxicity to eukaryotic cells and wax moth larva [6]: minimally toxic
- emPAI of LptE [7]: 8.46
- Resistance in vitro [8]: no resistance
